Experimental findings from patent US20260248765A1, “TIME RELEASE SLEEP AID SYSTEM” (NightWise, LLC, priority 2017, published 2026) are described below.

The nature of this data set: Release time based on dissolution times of each ingredient in water. In kind it is physicochemical. The note with it: soft chew composition of Table 2. As for the experimental part: The release time was determined based on dissolution times of each ingredient in water.
As for `N[C@@H](Cc1c[nH]c2ccc(O)cc12)C(=O)O` [5-Hydroxytryptophan], the “Release Time” value is 0 min. Consider `NCC(=O)[O-].NCC(=O)[O-].[Mg+2]` [Magnesium Glycinate], for which the “Release Time” value was determined as 0 min. As for `COc1ccc2[nH]cc(CCNC(C)=O)c2c1` [Melatonin, reference compound], the “Release Time” value was 0 min. As to `NCCCC(=O)O` [PHARMAGABA ™], the “Release Time” value is 0 min. For `CN1c2c(nc(N)[nH]c2=O)NC[C@@H]1CNc1ccc(C(=O)N[C@@H](CCC(=O)O)C(=O)O)cc1.N[C@H]1C(O)O[C@H](CO)[C@@H](O)[C@@H]1O` [QUATREFOLIC ™, (6S)-5-methyltetrahydrofolic acid, glucosamine salt] the value was 0 min; for `Cc1cc2nc3c(=O)[nH]c(=O)nc-3n(C[C@H](O)[C@H](O)[C@H](O)COP(=O)([O-])O)c2cc1C.[Na+]` [Riboflavin 5′-Phosphate Sodium], 0 min. Take `Cc1ncc(COP(=O)(O)O)c(C=O)c1O.O` [Vitamin B6, pyridoxal-5-phosphate monohydrate]: the “Release Time” value stood at 0 min. On to `C/C1=C2/[N-][C@H]([C@H](CC(N)=O)[C@@]2(C)CCC(=O)NC[C@@H](C)OP(=O)([O-])O[C@H]2[C@@H](O)[C@@H](n3cnc4cc(C)c(C)cc43)O[C@@H]2CO)[C@]2(C)N=C(/C(C)=C3N=C(/C=C4N=C1[C@@H](CCC(N)=O)C\4(C)C)[C@@H](CCC(N)=O)[C@]\3(C)CC(N)=O)[C@@H](CCC(N)=O)[C@]2(C)CC(N)=O.[CH3-].[Co+3]` [Vitamin B12, methylcobalamin], for which the “Release Time” value turned out to be 0 min.
